According to the supplement of paper PMC3493320:

Each compound was assayed on NCI-H295R (assay: IC50 (antiproliferative, ATP content)). Details: 48 h.
In short: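 In 1536-well plates, 1500 adrenocortical carcinoma cells per well were grown overnight in serum-free, ITS-supplemented DMEM before compounds were pin-transferred at 8 final concentrations (0.6 nM to 46 µM). After 48 h at 37 °C and 5% CO2, CellTiter-Glo luminescence was read following 20 min at room temperature and normalised to vehicle and positive-control wells. IC50 values came from logistic curve fits, with compounds lacking any concentration response listed as above the top dose.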

SMILES | IC50
CCN(C(C)=O)c1cccc(-c2ccnc3c(C#N)cnn23)c1 | > 46 µM
NC1CCCCC1.NC1CCCCC1.O=P(O)(O)OC[C@H](O)CO | > 46 µM
O=C(O)c1ccc(S(=O)(=O)N(Cl)Cl)cc1 | > 46 µM
CN(C/C=C/c1ccccc1)Cc1cccc2ccccc12.Cl | > 46 µM
CC=CC=CC(=O)O | > 46 µM
CCC1(c2ccccc2)C(=O)NCNC1=O | > 46 µM
C[C@]12C[C@H]3S[C@H]3C[C@@H]1CC[C@@H]1[C@@H]2CC[C@]2(C)[C@@H](O)CC[C@@H]12 | > 46 µM
CCC(=O)[C@@]1(C)[C@H](C)C[C@H]2[C@@H]3CCC4=CC(=O)C=C[C@]4(C)[C@H]3[C@@H](O)C[C@@]21C | > 46 µM
CCC[C@@H]1C[C@@H](C(=O)N[C@@H]([C@H]2O[C@H](SC)[C@H](O)[C@@H](O)[C@H]2O)[C@H](C)Cl)N(C)C1.Cl | > 46 µM
CN1CCN(c2c(F)cc3c(=O)c(C(=O)O)cn4c3c2OCN4C)CC1 | > 46 µM
CN1C(=O)CC(c2ccccc2)C1=O (stereo unspecified) | > 46 µM
CCC1(c2ccccc2)C(=O)N(COC)C(=O)N(COC)C1=O | > 46 µM
O=[C@](O)[C@H](CC1)NC1=O | > 46 µM
COc1ccc(C(=O)c2c(C)n(CCN3CCOCC3)c3ccccc23)cc1 | > 46 µM
CCc1cccc2c3c([nH]c12)C(CC)(CC(=O)O)OCC3 (stereo unspecified) | > 46 µM
OCC(O)CN1CCN(c2ccccc2)CC1 (stereo unspecified) | > 46 µM
S=P(N1CC1)(N1CC1)N1CC1 | > 46 µM
C[C@H](Cc1ccc(O)c(O)c1)[C@@H](C)Cc1ccc(O)c(O)c1 | > 46 µM
CN(C)CCN(Cc1cccs1)c1ccccn1.Cl | > 46 µM
O=C1CCO1 | > 46 µM
CN[C@H]1C[C@@H](N)[C@H](O)[C@@H](O[C@@H]2O[C@H](CO)[C@H](O)[C@@H]3OC4(O[C@H]23)O[C@H]([C@H](N)CO)[C@H](O)[C@H](O)[C@H]4O)[C@@H]1O (stereo partly specified) | > 46 µM
CC(CN(C)C)CN1c2ccccc2CCc2ccccc21.O=C(O)/C=C\C(=O)O (stereo unspecified) | > 46 µM
COc1ccccc1N1CCN(CCCC(=O)c2ccc(F)cc2)CC1 | > 46 µM
CCCCN1CCCC[C@H]1C(=O)Nc1c(C)cccc1C.Cl | > 46 µM
CC1CCc2c(N3CCC(O)CC3)c(F)cc3c(=O)c(C(=O)O)cn1c23 (stereo unspecified) | > 46 µM
CCN(CC)CCCC(C)Nc1cc(C=Cc2ccccc2Cl)nc2cc(Cl)ccc12 (stereo unspecified) | > 46 µM

SMILES | IC50
N[C@H](C(=O)O)[C@@H](O)c1ccc(O)c(O)c1 | > 46 µM
CS(=O)(=O)CCNCc1ccc(-c2ccc3ncnc(Nc4ccc(OCc5cccc(F)c5)c(Cl)c4)c3c2)o1 | > 46 µM
NCC1CCC(C(=O)O)CC1 (stereo unspecified) | > 46 µM
CCCCC[C@H](O)/C=C/[C@@H]1[C@@H](C/C=C\CCCC(=O)O)[C@@H](O)C[C@H]1O | > 46 µM
Cn1cc(NC(=O)c2cc(NC(=O)c3cc(NC=O)cn3C)cn2C)cc1C(=O)NCCC(=N)N | > 46 µM
C=C[C@H]1CN2CCC1C[C@@H]2[C@@H](O)c1ccnc2ccccc12 (stereo partly specified) | > 46 µM
COc1ccccc1OC(=O)Oc1ccccc1OC | > 46 µM
NC1=NC(=O)N2CC12 (stereo unspecified) | > 46 µM
O=C1CCC(N2C(=O)c3ccccc3C2=O)C(=O)N1 (stereo unspecified) | > 46 µM
N=C(N)NN=Cc1c(Cl)cccc1Cl | > 46 µM
Cc1ccccc1OCC(O)CNCCOc1ccc(C(N)=O)cc1 (stereo unspecified) | > 46 µM
CCC1(c2ccccc2)CCC(=O)NC1=O (stereo unspecified) | > 46 µM
CCC(=O)c1c(O)cc(O)cc1O | > 46 µM
Cc1ccc(S(=O)(=O)NC(=O)NC2CCCCC2)cc1 | > 46 µM
CCOP(=O)(OCC)OC(=CCl)c1ccc(Cl)cc1Cl | > 46 µM
CC(CCc1ccc(O)cc1)NCCc1ccc(O)c(O)c1 (stereo unspecified) | > 46 µM
O=[C@](O)[C@@]3(C)[C@@]1([H])[C@@](CCC3)(C)[C@]2([H])C(C=[C@@]([C@@H](C)C)CC2)=CC1 | > 46 µM
CCN(CC)CC(=O)Nc1c(C)cccc1C | > 46 µM
CCNC(C)Cc1cccc(C(F)(F)F)c1 (stereo unspecified) | > 46 µM
Cc1ccc(Cl)c(O)c1 | > 46 µM
Cc1nnc2n1-c1ccc(Cl)cc1C(c1ccccc1)=NC2 | > 46 µM
CC(C)=CCC1C(=O)N(c2ccccc2)N(c2ccccc2)C1=O | > 46 µM
CC(=O)O[C@H]1CC[C@H]2[C@@H]3CCC4=CC(=O)CCC4=C3C=C[C@]12C | > 46 µM
COC1=C(OC)C(=O)C(C/C=C(\C)CC/C=C(\C)CC/C=C(\C)CC/C=C(\C)CC/C=C(\C)CC/C=C(\C)CC/C=C(\C)CC/C=C(\C)CC/C=C(\C)CCC=C(C)C)=C(C)C1=O | > 46 µM
c1ccc2[nH]c(-c3cscn3)nc2c1 | > 46 µM
CC1(C)C(C=C(Cl)Cl)C1C(=O)OCc1cccc(Oc2ccccc2)c1 (stereo unspecified) | > 46 µM

SMILES | IC50
O=[C@@](OCC2=CC=CC(OC3=CC=CC=C3)=C2)[C@H]1C(C)(C)C1/C=C(C)/C (stereo partly specified) | > 46 µM
Cc1ccc(S(=O)(=O)O)cc1.NC1CCN(c2nc3c(cc2F)c(=O)c(C(=O)O)cn3-c2ccc(F)cc2F)C1 (stereo unspecified) | > 46 µM
O=C2N1[C@]([C@@]([H])2NC(CC3=CC=CC=C3)=O)([H])SC(C)(C)[C@@H]1[C@@]([O-])=O.[K+] | > 46 µM
Cc1scc2c1N(C(=O)CN1CCN(C)CC1)c1ccccc1NC2=O | > 46 µM
CC1(C)S[C@@H]2[C@H](NC(=O)[C@@H](NC(=O)N3CCNC3=O)c3ccccc3)C(=O)N2[C@H]1C(=O)[O-].[Na+] | > 46 µM
CN(C)[C@@H]1C(O)=C(C(=O)NCN2CCCC2)C(=O)[C@@]2(O)C(O)=C3C(=O)c4c(O)cccc4[C@@](C)(O)C3C[C@@H]12.Cl (stereo partly specified) | > 46 µM
CC(C)(C)C(=O)Oc1ccc(S(=O)(=O)Nc2ccccc2C(=O)NCC(=O)[O-])cc1.O.O.O.O.[Na+] | > 46 µM
COP(=S)(OC)SCN1C(=O)c2ccccc2C1=O | > 46 µM
CCOc1cc(N)c(Cl)cc1C(=O)NCC1CN(Cc2ccc(F)cc2)CCO1.O=C(O)CC(O)(CC(=O)O)C(=O)O (stereo unspecified) | > 46 µM
OCC=Cc1ccccc1 | > 46 µM
Nc1ccc(C(=O)NCC(=O)O)cc1 | > 46 µM
OC[C@@H](O)[C@@H](O)[C@@H](CO)O | > 46 µM
CCC1(c2ccccc2)C(=O)NC(=O)N(C)C1=O (stereo unspecified) | > 46 µM
Cl.N=C(N)NC(=N)N1CCOCC1 | > 46 µM
C=CCc1ccc(O)c(OC)c1 | > 46 µM
Cl.c1ccc(CC2=NCCN2)cc1 | > 46 µM
O=C(O)c1cc(-c2ccc(F)cc2F)ccc1O | > 46 µM
C=CC[N+]1([C@H]2C[C@H]3[C@@H]4CC[C@H]5C[C@H](O)[C@@H](N6CCOCC6)C[C@]5(C)[C@H]4CC[C@]3(C)[C@H]2OC(C)=O)CCCC1.[Br-] | > 46 µM
COCCc1ccc(OCC(O)CNC(C)C)cc1.COCCc1ccc(OCC(O)CNC(C)C)cc1.O=C(O)[C@H](O)[C@@H](O)C(=O)O (stereo unspecified) | > 46 µM
CN1C(C(=O)Nc2ccccn2)=C(O)c2ccccc2S1(=O)=O | > 46 µM
O[C@]([C@@H](CC3)CC[C@@]3(C#N)C(C=C1OC2CCCC2)=CC=C1OC)=O | > 46 µM
CCOC(=O)OC(C)OC(=O)[C@@H]1N2C(=O)[C@@H](NC(=O)[C@H](N)c3ccccc3)[C@H]2SC1(C)C.Cl (stereo partly specified) | > 46 µM
CN1CCN(C2=Nc3cc(Cl)ccc3Nc3ccccc32)CC1 | > 46 µM
O=C1CCCCC1CN1CCCCC1 (stereo unspecified) | > 46 µM
C[C@H](N)[C@H](O)c1cccc(O)c1.O=C(O)[C@@H](O)[C@@H](O)C(=O)O | > 46 µM
CCOC(=O)C(C)(C)Oc1ccc(Cl)cc1 | > 46 µM

SMILES | IC50
O=C([O-])c1cc2cc(Cc3cccnc3)ccc2o1.[Na+] | > 46 µM
CC(C)c1nc(N(C)S(C)(=O)=O)nc(-c2ccc(F)cc2)c1/C=C/C(O)CC(O)CC(=O)[O-].CC(C)c1nc(N(C)S(C)(=O)=O)nc(-c2ccc(F)cc2)c1/C=C/C(O)CC(O)CC(=O)[O-].[Ca+2] (stereo unspecified) | > 46 µM
CC(C)[N+](C)(CCOC(=O)C1c2ccccc2Oc2ccccc21)C(C)C.[Br-] | > 46 µM
COC(=O)N/N=C/c1c[n+]([O-])c2ccccc2[n+]1[O-] | > 46 µM
CC(C)NCC(O)c1ccccc1Cl.Cl (stereo unspecified) | > 46 µM
NS(=O)(=O)c1cc(C(=O)O)c(NCc2ccco2)cc1Cl | > 46 µM
N[C@H](CO)C(=O)O | > 46 µM
COc1ccc(CN2CCNCC2)c(OC)c1OC.Cl.Cl | > 46 µM
CCc1ccc(C(=O)C(C)CN2CCCCC2)cc1.Cl (stereo unspecified) | > 46 µM
CCCCC/C=C\C/C=C\C/C=C\CCCCC(=O)O | > 46 µM
CCC(C(N)=O)N1CCCC1=O (stereo unspecified) | > 46 µM
COc1ccc(CCN(C)CCCC(C#N)(c2ccc(OC)c(OC)c2)C(C)C)cc1OC (stereo unspecified) | > 46 µM
CN1C(=O)OC(C)(C)C1=O | > 46 µM
CC1(C)O[C@@H]2C[C@H]3[C@@H]4C[C@H](F)C5=CC(=O)CC[C@]5(C)[C@H]4[C@@H](O)C[C@]3(C)[C@]2(C(=O)CO)O1 | > 46 µM
COC(=O)c1cccnc1 | > 46 µM
CC1(C)S[C@@H]2[C@H](NC(=O)C(N)c3ccccc3)C(=O)N2[C@H]1C(=O)OC1OC(=O)c2ccccc21.Cl (stereo partly specified) | > 46 µM
CCCCCCCCCCCCOS(=O)(=O)[O-].[Na+] | > 46 µM
O=C(C(CCC)CCC)O[C@@H]1C[C@H](CC2)[N@@+](C)(C)[C@H]2C1.[Br-] | > 46 µM
Cl.O=C(OCC(O)CO)c1ccccc1Nc1ccnc2cc(Cl)ccc12 (stereo unspecified) | > 46 µM
CCCCC(C)(O)C/C=C/[C@H]1[C@H](O)CC(=O)[C@@H]1CCCCCCC(=O)OC (stereo partly specified) | > 46 µM
CCCC(=O)OC(C(Cl)(Cl)Cl)P(=O)(OC)OC (stereo unspecified) | > 46 µM
CC(=O)Oc1cc(C(C)C)c(OCCN(C)C)cc1C.Cl | > 46 µM
CC1=C(CC(=O)O)c2cc(F)ccc2/C1=C\c1ccc(S(C)=O)cc1 (stereo unspecified) | > 46 µM
